According to US20020058275A1, “Compositions, kits, and methods for effecting adenine nucleotide modulation of DNA mismatch recognition proteins” (Thomas Jefferson University, priority 1997, published 2002):

Tests used:
hMSH2:hMSH6 heterodimer [1] = target: T1, hMSH2:hMSH6 heterodimer (Homo sapiens, UniProt P43246+P52701); assay: Gel mobility shift assay of adenine nucleotide effects on mismatch binding and release; format: biochemical; settings: for IC50: G/T-mismatched DNA substrate, read-out: IC50 (concentration required to cause release of 50% of a population of heterodimers from a G/T-mismatched DNA substrate); for S-shifted material re-associated with the DNA as NS-shifted heterodimer: increasing amounts of nucleotide added; for effect on G/T mismatch binding / release of the heterodimer from G/T-mismatched DNA substrate: nucleotide added to the mismatch binding reaction mixture, FIG. 3 at 25 and 250 micromolar
T1 construct: made in house; host or cells: SF9 insect cells, baculovirus (pFastBac dual)

[2] = target: T2, hMSH2:hMSH6 heterodimer ATPase (Homo sapiens, UniProt P43246+P52701); assay: ATPase assays (steady state and initial velocity); format: biochemical
T2 construct: made in house; host or cells: SF9 insect cells, baculovirus (pFastBac dual)
Description: Buffer P comprised 40 millimolar HEPES which had been adjusted to pH 7.8 using NaOH, 75 millimolar NaCl, 10 millimolar MgCl2, 1.75 millimolar DTT, and 0.075 millimolar EDTA, and 15% (v/v) glycerol. Steady state reaction measurements were made using 60 nanomolar hMSH2:hMSH6 heterodimer and either 240 nanomolar homoduplex 39-base pair DNA substrate or 240 nanomolar G/T mismatched 39-base pair DNA substrate. Reaction mixtures were incubated at 37° C. for thirty minutes, and the reaction was stopped by addition of 400 microliters of a solution comprising 10% (w/v) activated charcoal (Sigma Chemical Co., St. Louis, Mo.) and 1 millimolar EDTA. Charcoal was pelleted by centrifuging the mixture at 10,000 rotations per minute for ten minutes. The 32p content of duplicate 100 microliter aliquots of the supernatant was assessed by liquid scintillation.
Aliquots were removed at selected times and electrophoresed as described herein. A control aliquot was removed and prepared for electrophoresis prior to addition of the MgCl2-containing Buffer P to the reaction mixture.
TLC was performed as previously described (Fishel et al., 1988, Proc. Natl. Acad. Sci. USA 85:36-40).

[3] = tested on: G/T-mismatched 81-base pair DNA substrate; assay: Gel mobility shift and DNase footprint assays of heterodimer binding to mismatched DNA
Description: (§1) Gel mobility shift assays were performed by incubating a hMSH2:hMSH6 heterodimer and 9 femtomoles of either the ^32P-labeled homologous 81-base pair DNA substrate or the ^32P-labeled G/T-mismatched 81-base pair DNA substrate in a buffer comprising 50 millimolar NaCl, 25 millimolar HEPES buffer which had been adjusted to pH 7.5 using NaOH, 1 millimolar DTT, 0.01 millimolar EDTA, and 15% (v/v) glycerol. The buffer included 10 nanograms per microliter of poly dI-dC (Pharmacia LKB Biotechnology Inc., Piscataway, N.J.). […] In certain experiments described herein, the incubation mixture further comprised selected concentrations of nucleotides or non-labeled DNA. In other experiments described herein, the incubation mixture further comprised 1 millimolar MgCl2 or 5 millimolar EDTA. […] Each incubation mixture was applied to a gel comprising 4% (w/v) polyacrylamide (29:1 ratio of acrylamide:bis-acrylamide) 4% (v/v) glycerol, 40 millimolar Tris acetate buffer (pH 7.8), and 1 millimolar EDTA. Electrophoresis was performed by applying 200 volts to the gel for two hours. Following electrophoresis, each gel was dried and quantitated using a phosphoimaging device obtained from Molecular Dynamics.
Incubation of the hMSH2:hMSH6 heterodimer with ^32P-labeled DNA substrates was performed as described for gel mobility shift assays, except that 18 femtomoles of 32p-labeled DNA substrate was used in each assay. Following incubation, 80 microliters of a buffer comprising 50 millimolar NaCl, 25 millimolar HEPES buffer which had been adjusted to pH 7.8 using NaOH, 1 millimolar DTT, 10 nanograms per microliter poly dI-dC, 1.25 millimolar CaCl2, 3.1 millimolar MgCl2, 10% (v/v) glycerol, and 33 picograms per microliter DNase (Boehringer Mannheim, Indianapolis, Ind.) was added to each incubation mixture. […]

[4] = tested on: homologous 81-base pair DNA substrate; assay: Gel mobility shift and DNase footprint assays of heterodimer binding to homoduplex DNA; settings: homoduplex concentrations greater than 400 nanomolar
Description: as §1, with “Dynamics. […]” for “Dynamics.”

hMSH2:hMSH6 heterodimer [5] = target: T1, hMSH2:hMSH6 heterodimer; assay: ADP exchange assay (filter binding of [3H]-ADP); settings: excess non-labeled ATP
Description: The ADP-ATP exchange rate was determined in a reaction mixture which comprised Buffer Q, 2.3 micromolar [^3H]-ADP, and 60 nanomolar hMSH2:hMSH6 heterodimer. Buffer Q comprised 25 millimolar HEPES which had been adjusted to pH 7.8 using NaOH, 75 millimolar NaCl, 10 millimolar MgCl2, 1 millimolar DTT, and 15% (v/v) glycerol. This reaction mixture was incubated for ten minutes at room temperature. 240 nanomolar G/T-mismatched 39-base pair DNA substrate was added to the reaction mixture, and the incubation was continued for an additional ten minutes. The final volume of the reaction mixture was 10 microliters. […] Reactions were incubated at 25° C. for a selected time and then halted by diluting the reaction mixture with 4 milliliters of an ice-cold stop buffer comprising 25 millimolar HEPES which had been adjusted to pH 7.8 using NaOH, 100 millimolar NaCl, and 10 millimolar MgCl2.
Each halted reaction mixture was immediately filtered on a HAWP nitrocellulose membrane (Millipore, Bedford, Mass.) and washed thrice with 4 milliliters of the ice-cold stop buffer. […] Radioactivity retained on the filters was quantified using a Beckman scintillation counter. […] The amount of [^3H]-ADP retained on the membrane to which the control reaction mixture was applied was considered to correspond to the amount of radioactivity retained when 100% of the complex had [^3H]-ADP bound thereto.

hMSH2:hMSH6 heterodimer [6] = target: T3, hMSH2:hMSH6 heterodimer (Homo sapiens, UniProt P43246;P52701 P43246:1-934,P52701:1-1360); assay: EMSA; no NS product observed with 39-bp homoduplex; settings: tags: 6xHis at N-terminus of hMSH6; Sf9 baculovirus (pFastBac dual) co-expression; fully complementary homoduplex
Description: (§2) The buffer included 10 nanograms per microliter of poly dI-dC (Pharmacia LKB Biotechnology Inc., Piscataway, N.J.). […] In certain experiments described herein, the incubation mixture further comprised selected concentrations of nucleotides or non-labeled DNA. In other experiments described herein, the incubation mixture further comprised 1 millimolar MgCl₂ or 5 millimolar EDTA. […] Each incubation mixture was applied to a gel comprising 4% (w/v) polyacrylamide (29:1 ratio of acrylamide:bis-acrylamide) 4% (v/v) glycerol, 40 millimolar Tris acetate buffer (pH 7.8), and 1 millimolar EDTA. Electrophoresis was performed by applying 200 volts to the gel for two hours. Following electrophoresis, each gel was dried and quantitated using a phosphoimaging device obtained from Molecular Dynamics.
hMSH2:hMSH6 heterodimer [7] = target: T3, hMSH2:hMSH6 heterodimer; assay: EMSA; apparent Kd; no adenine nucleotide, no Mg; 50 mM NaCl, HEPES pH 7.5, poly dI-dC, 37 C; settings: tags: 6xHis at N-terminus of hMSH6; Sf9 baculovirus (pFastBac dual) co-expression; label: 32P 5' end; single G/T mismatch
Description: as §2
(§3) The apparent dissociation constant (Kd) was determined in a simple buffer system comprising neither an adenine nucleotide nor magnesium using the homologous 81-base pair DNA substrate and the G/T-mismatched 81-base pair DNA substrate described herein.
hMSH2:hMSH6 heterodimer [8] = target: T3, hMSH2:hMSH6 heterodimer; assay: footprint; DNase footprint; about 25 nt asymmetrically protected on both strands; no adenine nucleotide; settings: tags: 6xHis at N-terminus of hMSH6; Sf9 baculovirus (pFastBac dual) co-expression; label: 32P 5' end; single G/T mismatch
Description: as §3

[9] = ATP alone as a substrate (absence of DNA)
[10] = ATP and G/C-mismatched DNA as substrates
[11] = ATP and G/T-mismatched DNA as substrates
[12] = 0.2 millimolar ATP, 1 millimolar MgCl2, ADP 0 to 3.2 millimolar

T1 sequence (P43246 whole entry): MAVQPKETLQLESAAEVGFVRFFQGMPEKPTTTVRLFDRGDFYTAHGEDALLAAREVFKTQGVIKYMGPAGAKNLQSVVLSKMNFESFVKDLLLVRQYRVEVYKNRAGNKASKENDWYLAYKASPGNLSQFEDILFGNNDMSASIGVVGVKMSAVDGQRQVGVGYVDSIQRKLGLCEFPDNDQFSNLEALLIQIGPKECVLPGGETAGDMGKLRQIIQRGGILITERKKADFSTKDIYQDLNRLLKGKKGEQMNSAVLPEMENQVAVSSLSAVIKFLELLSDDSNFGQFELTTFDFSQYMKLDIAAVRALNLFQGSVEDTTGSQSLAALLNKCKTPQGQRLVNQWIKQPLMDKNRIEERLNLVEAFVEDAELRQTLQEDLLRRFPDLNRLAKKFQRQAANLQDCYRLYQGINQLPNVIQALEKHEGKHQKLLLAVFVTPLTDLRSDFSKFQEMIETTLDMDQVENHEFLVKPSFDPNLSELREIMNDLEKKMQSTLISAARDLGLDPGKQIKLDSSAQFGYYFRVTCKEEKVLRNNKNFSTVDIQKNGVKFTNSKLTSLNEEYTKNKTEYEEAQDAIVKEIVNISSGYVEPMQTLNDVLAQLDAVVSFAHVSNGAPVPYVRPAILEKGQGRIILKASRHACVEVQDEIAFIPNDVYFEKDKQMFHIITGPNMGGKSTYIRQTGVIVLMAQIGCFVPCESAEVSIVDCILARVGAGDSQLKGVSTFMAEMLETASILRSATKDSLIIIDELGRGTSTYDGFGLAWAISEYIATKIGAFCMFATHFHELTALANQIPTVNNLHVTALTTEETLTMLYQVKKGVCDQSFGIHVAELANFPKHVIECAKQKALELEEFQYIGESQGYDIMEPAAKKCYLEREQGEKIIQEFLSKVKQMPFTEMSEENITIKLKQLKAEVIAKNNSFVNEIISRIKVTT
T1 sequence (P52701 whole entry): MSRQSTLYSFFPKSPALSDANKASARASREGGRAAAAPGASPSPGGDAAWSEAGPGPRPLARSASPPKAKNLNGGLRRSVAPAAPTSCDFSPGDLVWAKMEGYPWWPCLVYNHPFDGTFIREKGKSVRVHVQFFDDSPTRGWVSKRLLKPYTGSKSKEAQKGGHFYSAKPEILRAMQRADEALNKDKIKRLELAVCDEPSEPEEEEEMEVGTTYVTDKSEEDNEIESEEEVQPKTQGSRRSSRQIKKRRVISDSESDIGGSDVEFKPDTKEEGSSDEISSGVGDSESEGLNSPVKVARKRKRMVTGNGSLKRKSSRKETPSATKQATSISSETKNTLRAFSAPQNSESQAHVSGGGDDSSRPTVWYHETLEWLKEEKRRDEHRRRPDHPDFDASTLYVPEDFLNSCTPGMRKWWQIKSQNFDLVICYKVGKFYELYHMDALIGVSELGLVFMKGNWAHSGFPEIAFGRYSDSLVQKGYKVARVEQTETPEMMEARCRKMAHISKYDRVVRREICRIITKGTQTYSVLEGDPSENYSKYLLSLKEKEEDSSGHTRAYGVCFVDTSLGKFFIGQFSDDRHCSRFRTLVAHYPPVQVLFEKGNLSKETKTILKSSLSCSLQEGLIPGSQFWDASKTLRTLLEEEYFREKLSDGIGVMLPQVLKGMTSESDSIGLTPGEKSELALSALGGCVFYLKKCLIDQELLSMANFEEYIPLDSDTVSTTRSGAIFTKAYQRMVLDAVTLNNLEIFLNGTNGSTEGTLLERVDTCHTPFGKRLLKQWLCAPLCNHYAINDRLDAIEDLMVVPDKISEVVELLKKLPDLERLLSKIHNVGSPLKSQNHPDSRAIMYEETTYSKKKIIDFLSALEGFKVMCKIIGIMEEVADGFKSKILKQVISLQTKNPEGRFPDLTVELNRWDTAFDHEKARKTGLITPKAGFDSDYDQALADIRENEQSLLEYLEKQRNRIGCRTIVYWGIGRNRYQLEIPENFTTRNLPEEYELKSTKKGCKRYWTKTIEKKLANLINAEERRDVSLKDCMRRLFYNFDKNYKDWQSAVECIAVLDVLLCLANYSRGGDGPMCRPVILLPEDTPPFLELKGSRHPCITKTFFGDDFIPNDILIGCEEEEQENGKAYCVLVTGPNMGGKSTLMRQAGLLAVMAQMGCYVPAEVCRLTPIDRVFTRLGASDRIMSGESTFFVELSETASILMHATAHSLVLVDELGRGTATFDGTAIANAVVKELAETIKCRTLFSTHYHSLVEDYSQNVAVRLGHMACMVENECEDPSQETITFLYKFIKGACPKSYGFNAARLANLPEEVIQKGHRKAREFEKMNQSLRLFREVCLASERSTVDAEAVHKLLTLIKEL
T3 sequence (P43246 whole entry, chain 1 of 2): as the sequence (P43246 whole entry) above
T3 sequence (P52701 whole entry, chain 2 of 2): as the sequence (P52701 whole entry) above
T2 sequence (P43246 whole entry): as the sequence (P43246 whole entry) above
T2 sequence (P52701 whole entry): as the sequence (P52701 whole entry) above

Nc1ncnc2c1ncn2[C@@H]1O[C@H](COP(=O)(O)OP(=O)(O)OP(=O)(O)O)[C@@H](O)[C@H]1O [ATP]
mismatched DNA substrate binding activity recovered after magnesium addition (hMSH2:hMSH6 heterodimer [1]; 15 micromolar nucleotide, ten minutes of incubation at 37° C.): ~70% | IC50 (hMSH2:hMSH6 heterodimer [1]): ~3000 nM | effect on binding of the heterodimer to homoduplex DNA (NS binding) (hMSH2:hMSH6 heterodimer [1]; homoduplex DNA): not affected | S-shifted material re-associated with the DNA as NS-shifted heterodimer (hMSH2:hMSH6 heterodimer [1]): approximately 15% | calculated Kcat for ATP ([2]; 37° C.): > 0.333 s⁻¹ | Km [2, 9]: ~10 µM | kcat [2, 9]: about 0.9 minute^1 | Km [2, 10]: ~23 µM | kcat [2, 10]: about 7.4 minute-^1 | Km [2, 11]: ~46 µM | kcat [2, 11]: about 26 minute-^1

Nc1ncnc2c1ncn2[C@H]1C[C@H](O)[C@@H](COP(=O)(O)OP(=O)(O)OP(=O)(O)O)O1 [dATP, 2′-deoxy adenosine triphosphate]
effect on G/T mismatch binding / release of the heterodimer from G/T-mismatched DNA substrate (hMSH2:hMSH6 heterodimer [1]): caused release

Nc1ncnc2c1ncn2[C@@H]1O[C@H](COP(=O)(O)OP(=O)(O)NP(=O)(O)O)[C@@H](O)[C@H]1O [AMP-PNP, adenylyl-imidodiphosphate]
effect on G/T mismatch binding / release of the heterodimer from G/T-mismatched DNA substrate (hMSH2:hMSH6 heterodimer [1]): Failure of AMP-PNP and AMP-PCP to stimulate release

hMSH2:hMSH6 heterodimer: purified human mismatch recognition complex of hMSH2 and six-histidine-tagged hMSH6, overexpressed in SF9 insect cells
half-life of the G/T-mismatched DNA substrate-bound heterodimer ([3]; 400-fold excess of non-labeled homoduplex DNA, no ATP): greater than ten | Kd ([3]; buffer comprising neither an adenine nucleotide nor magnesium, gel shift and DNase footprint assays, read-out: apparent dissociation constant (Kd) for G/T mismatches): ~20 nM | efficiency of binding to a G/T mismatch relative to hMSH2 alone ([3]; compared with literature values for hMSH2 alone): at least ten | saturability of binding of non-mismatched DNA [4]: not saturable

Nc1ncnc2c1ncn2[C@@H]1O[C@H](COP(=O)(O)OP(=O)(O)CP(=O)(O)O)[C@@H](O)[C@H]1O [AMP-PCP, adenyl-(beta-, gamma-methylene)-diphosphonate]
effect on G/T mismatch binding / release of the heterodimer from G/T-mismatched DNA substrate (hMSH2:hMSH6 heterodimer [1]): Failure of AMP-PNP and AMP-PCP to stimulate release

Nc1ncnc2c1ncn2[C@@H]1O[C@H](COP(=O)(O)OP(=O)(O)O)[C@@H](O)[C@H]1O [ADP]
excess of ADP giving approximately complete reversal of ATP-caused substrate release (hMSH2:hMSH6 heterodimer [1]; [12]): 16 fold | excess of ADP to ATP giving reversal of approximately half of the ATP-caused substrate release (hMSH2:hMSH6 heterodimer [1]; [12]): 2- to 3 fold | effect on G/T mismatch binding / release of the heterodimer from G/T-mismatched DNA substrate (hMSH2:hMSH6 heterodimer [1]): increased binding affinity | half-life of the ADP-bound heterodimer (hMSH2:hMSH6 heterodimer [5]; absence of DNA): greater than eight hundred | half-life of the ADP-bound heterodimer (hMSH2:hMSH6 heterodimer [5]; presence of G/T-mismatched DNA substrate): less than two

Adenosine-5′-O-3-thiotriphosphate [ATP-gamma-S]
IC50 (hMSH2:hMSH6 heterodimer [1]): 3000 nM | mismatched DNA substrate binding activity recovered after magnesium addition (hMSH2:hMSH6 heterodimer [1]; following incubation at 37° C., time not stated): about 22% | S-shifted material re-associated with the DNA as NS-shifted heterodimer (hMSH2:hMSH6 heterodimer [1]): approximately 15%

B1: homologous 39-bp duplex (dsDNA)
DNA 1: CGGCGAATTCCACCAAGCTTGATCGCTCGAGGTACCAGG
DNA 2: CCTGGTACCTCGAGCGATCAAGCTTGGTGGAATTCGCCG
binding result (hMSH2:hMSH6 heterodimer [6]): no binding

B2: G/T-mismatched 81-bp duplex (dsDNA)
DNA 1: AAAGCTGGAGCTGAAGCTTAGCTTAGGATCATCGAGGATCGAGCTCGGTGCAATTCAGCGGTACCCAATTCGCCCTATAGT
DNA 2: ACTATAGGGCGAATTGGGTACCGCTGAATTGCACCGAGCTTGATCCTCGATGATCCTAAGCTAAGCTTCAGCTCCAGCTTT
modifications: [G41 (strand 1) opposite T41 (strand 2), G/T mismatch]
Kd (hMSH2:hMSH6 heterodimer [7]): 20 nM | Kd (hMSH2:hMSH6 heterodimer [8]): 20 nM
